Test results: paper PMC4965013, “Open Source Drug Discovery with the Malaria Box Compound Collection for Neglected Diseases and Beyond” (PLoS Pathogens, 2016)
Where “and” joins values, the source holds several entries; their conditions need not be identical. Identical values can stand only once.

Columns and labels:
[1] = molecular target: PfPMT (Plasmodium falciparum, UniProt Q8IDQ9); assay: PfPMT gene replacement yeast growth; settings: 100µM
[2] = tested on: NCI60 human tumor cell lines; assay: NCI60 5-dose (dose-response) assay; format: cell-based; settings: for MGLI50 = Mean Growth Log I50: 5-dose, mean over NCI60 panel; for _MID Log10GI50 / _MID Log10LC50 / _MID Log10TGI: mean over cell lines of one experiment
From the text: Columns IE-KK. NCI: Misra group (data presented first in this paper). NCI60 anti-tumor cell activity. Methods: […] These 60 cell lines, along with others, have been developed at NCI and have been maintained and distributed for research purposes by NCI for over 25 years. The experimental readout provides both inhibition of cell growth and cell kill. The screen was originally designed to prioritize agents for further evaluation. […] This is the same as for the 5-dose assay, described on http://dtp.cancer.gov/branches/btb/ivclsp.html. […] Testing beyond the initial screen: There were 133 compounds that passed threshold to proceed to 5-dose (dose-response) (data are available for the 133 compounds at the DTP public website (dtp.cancer.gov) by searching either the MMV number or NSC number). After examination of the 5-dose data, 10 compounds were selected for repeat testing based generally on potency, differential cell activity or activity on an individual cell lines or cell line panel. A summary of the data for the 10 compounds of interest is in the table below.

Sequence of PfPMT (Q8IDQ9 whole entry): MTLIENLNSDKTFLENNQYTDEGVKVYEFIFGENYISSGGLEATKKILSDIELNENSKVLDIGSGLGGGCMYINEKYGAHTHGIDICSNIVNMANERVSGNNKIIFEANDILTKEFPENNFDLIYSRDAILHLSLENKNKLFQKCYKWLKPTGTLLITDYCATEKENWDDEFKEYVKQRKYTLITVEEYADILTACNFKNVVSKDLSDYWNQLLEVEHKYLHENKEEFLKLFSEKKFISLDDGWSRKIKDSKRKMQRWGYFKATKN

CCOc1ccc(Nc2c3ccccc3nc3ccccc23)cc1 [MMV000304]
candidate inhibitors of PfPMT activity (yeast functional assay) [1]: candidate inhibitors of PfPMT activity

CCCCCCn1c(=N)n(CC(O)COc2cccc(C)c2)c2ccccc21 (centres unmarked) [MMV000445]
candidate inhibitors of PfPMT activity (yeast functional assay) [1]: candidate inhibitors of PfPMT activity

CCOC(=O)c1cnc2ccc(OC)cc2c1Nc1ccc(N2CCN(C)CC2)cc1 [MMV000704]
candidate inhibitors of PfPMT activity (yeast functional assay) [1]: candidate inhibitors of PfPMT activity

Oc1c(CN2CCN(c3ccccc3F)CC2)cc(Br)c2cccnc12 [MMV000760]
Notes (NCI60 5-dose activity pattern) [2]: Differential | MGLI50 = Mean Growth Log I50 [2]: -6.02 | _MID Log10GI50 ([2]; listed as 766634/2): -6.03 Molar and -6.0 Molar | _MID Log10LC50 ([2]; listed as 766634/2): -4.04 Molar and -4.06 Molar | _MID Log10TGI ([2]; listed as 766634/2): -4.67 Molar and -4.74 Molar

O=C(Nc1ccc(-c2nc3cc(NC(=O)c4ccc(Cl)cc4)ccc3[nH]2)cc1)c1ccc(Cl)cc1 [MMV006962]
Notes (NCI60 5-dose activity pattern) [2]: Differential, CNS | MGLI50 = Mean Growth Log I50 [2]: -5.61

Cc1ccc2c(C)nc(Nc3nc(C)cc(-c4ccccc4)n3)nc2c1 [MMV007041]
candidate inhibitors of PfPMT activity (yeast functional assay) [1]: candidate inhibitors of PfPMT activity

O=C(NC1CCN(Cc2ccccc2)CC1)c1cc(-c2ccncc2)nc2ccc(Cl)cc12 [MMV020275]
MGLI50 = Mean Growth Log I50 [2]: -4.93 | _MID Log10GI50 ([2]; listed as 766585/2): -4.95 Molar and -4.91 Molar | _MID Log10LC50 ([2]; listed as 766585/2): -4.05 Molar and -4.01 Molar | _MID Log10TGI ([2]; listed as 766585/2): -4.34 Molar and -4.19 Molar

N=c1n(CCN2CCCCC2)c2ccccc2n1CC(=O)c1ccc(Cl)c(Cl)c1 [MMV396723]
candidate inhibitors of PfPMT activity (yeast functional assay) [1]: candidate inhibitors of PfPMT activity

OC(CNCC1CCCO1)Cn1c2ccc(Cl)cc2c2cc(Cl)ccc21 (centres unmarked) [MMV396736]
candidate inhibitors of PfPMT activity (yeast functional assay) [1]: candidate inhibitors of PfPMT activity

CCOc1cc(Br)c(C(C)NC(=O)c2cccc(OC)c2)cc1OCC (centres unmarked) [MMV665796]
MGLI50 = Mean Growth Log I50 [2]: -5 | _MID Log10LC50 [2]: -4.0 Molar | _MID Log10GI50 ([2]; listed as 766556/2): -5.02 Molar and -4.97 Molar | _MID Log10TGI ([2]; listed as 766556/2): -4.07 Molar and -4.08 Molar

CCOc1cc(Cl)c(C(C)NC(=O)c2cccc(OC)c2)cc1OCC (centres unmarked) [MMV665803]
MGLI50 = Mean Growth Log I50 [2]: -5.01 | _MID Log10LC50 [2]: -4.0 Molar | _MID Log10GI50 ([2]; listed as 766546/2): -5.1 Molar and -4.93 Molar | _MID Log10TGI ([2]; listed as 766546/2): -4.1 Molar and -4.05 Molar

COc1cccc(C(=O)NC(c2ccc(C)cc2)c2cc(Cl)c3cccnc3c2O)c1 (centres unmarked) [MMV665969]
MGLI50 = Mean Growth Log I50 [2]: -6.29 | _MID Log10GI50 [2]: -6.3 Molar | _MID Log10LC50 [2]: -4.16 Molar | _MID Log10TGI [2]: -4.91 Molar

CN1c2ccccc2N(C)C1c1ccc2c(c1)OCO2 [MMV666009]
candidate inhibitors of PfPMT activity (yeast functional assay) [1]: candidate inhibitors of PfPMT activity

Cc1ccc(OCCCCCCNCCO)c(C)c1 [MMV666020]
MGLI50 = Mean Growth Log I50 [2]: -4.9 | _MID Log10GI50 ([2]; listed as 766672/2): -4.93 Molar and -4.86 Molar | _MID Log10LC50 ([2]; listed as 766672/2): -4.21 Molar and -4.19 Molar | _MID Log10TGI ([2]; listed as 766672/2): -4.56 Molar and -4.52 Molar

CCCCCCc1cc2cc(-c3nc4ccccc4[nH]3)c(=Nc3ccccc3C)oc2cc1O [MMV666597]
Notes (NCI60 5-dose activity pattern) [2]: Differential | MGLI50 = Mean Growth Log I50 [2]: -5.57

COc1cc(C(=O)ON=C(N)Cc2cccc3ccccc23)cc(OC)c1OC [MMV666687]
candidate inhibitors of PfPMT activity (yeast functional assay) [1]: candidate inhibitors of PfPMT activity

COc1ccc(C2c3ccc4ccccc4c3Oc3ncn(CCCN(C)C)c(=N)c32)cc1 (centres unmarked) [MMV667491]
candidate inhibitors of PfPMT activity (yeast functional assay) [1]: candidate inhibitors of PfPMT activity
